Laboratory results reported in patent US5556979A, “7-isoindolinyl-naphthyridone derivatives, compositions and anti-bacterial use thereof” (Bayer Aktiengesellschaft, priority 1992, dated 1996).
≈ marks a conversion by molar mass, not a printed value.

Assays:
Assay in all cases: Minimum inhibitory concentration (MIC), serial dilution on Iso-Sensitest agar
Assay type in all cases: cell-based
E. coli Neumann = conditions: Escherichia coli, 37° C., about 20 hours
Protocol: (§1) The minimum inhibitory concentrations (MIC) were determined by means of serial dilution methods on Iso-Sensitest agar (Oxoid). For each substance to be tested, a series of agar plates was prepared which contained concentrations of the active compound which decreased by a double dilution on each occasion. The agar plates were inoculated with a Multipoint inoculator (Denley). For the inoculation, overnight cultures of the pathogens were used which had previously been diluted so that each inoculation spot contained about 10^4 colony-forming particles. The inoculated agar plates were incubated at 37° C. and the organism growth was recorded after about 20 hours. The MIC value (μg/ml) indicates the lowest concentration of active compound at which no growth could be detected with the naked eye.

[1] = test system: Entercoccus faecalis 27 101; conditions: 37° C., about 20 hours
Protocol: as §1

[2] = test system: Enterobacter cloacae 2427; conditions: 37° C., about 20 hours
Protocol: as §1

Klebsiella sp. 8085 = conditions: 37° C., about 20 hours
Protocol: as §1

Micrococcus luteus 9341 = conditions: 37° C., about 20 hours
Protocol: as §1

Morganella morg. 932 = conditions: 37° C., about 20 hours
Protocol: as §1

Providencia sp. 12012 = conditions: 37° C., about 20 hours
Protocol: as §1

[3] = test system: Pseudomonas aeruginosa Walter; conditions: 37° C., about 20 hours
Protocol: as §1

[4] = test system: Staphylococcus aureus 1756; conditions: 37° C., about 20 hours
Protocol: as §1

[5] = test system: Staphylococcus aureus ICB 25701; conditions: ICB25701, 37° C., about 20 hours
Protocol: as §1

Row | Structure (SMILES) | MIC (E. coli Neumann) [µg/mL] | MIC [1] [µg/mL] | MIC [2] [µg/mL] | MIC (Klebsiella sp. 8085) [µg/mL] | MIC (Micrococcus luteus 9341) [µg/mL] | MIC (Morganella morg. 932) [µg/mL] | MIC (Providencia sp. 12012) [µg/mL] | MIC [3] [µg/mL] | MIC [4] [µg/mL] | MIC [5] [µg/mL]
1 | N[C@@H]1CC=C[C@@H]2CN(c3c(F)cc4c(=O)c(C(=O)O)cn(C5CC5)c4c3F)C[C@@H]12 (relative stereo) [Example 4, (1'SR,2'RS,6'SR)-7-(2'-Amino-8'-azabicyclo[4.3.0]non-4'-en-8'-yl)-1-cyclopropyl-6,8-difluoro-1,4-hydro-4-oxo-3-quinolinecarboxylic acid] | 0.0078 (≈ 0.0194 µM) | 0.15 (≈ 0.374 µM) | 0.015 (≈ 0.0374 µM) | 0.015 (≈ 0.0374 µM) | 0.015 (≈ 0.0374 µM) | 0.015 (≈ 0.0374 µM) | 0.015 (≈ 0.0374 µM) | 0.25 (≈ 0.623 µM) | 0.0039 (≈ 0.00972 µM) | 0.03 (≈ 0.0747 µM)
2 | N[C@@H]1CC=C[C@@H]2CN(c3cc4c(cc3F)c(=O)c(C(=O)O)cn4C3CC3)C[C@@H]12 (relative stereo) [Example 6, (1'SR,2'RS,6'SR)-7-(2'-amino-8'-azahicyclo[4.3.0]non-4'-en-8'-yl)-1-cyclopropyl-6-fluoro-1,4-dihydro-4-oxo-3-quinolinecarboxylic acid] | ≤ 0.015 | 0.03 (≈ 0.0782 µM) | 0.06 (≈ 0.156 µM) | 0.03 (≈ 0.0782 µM) | 0.06 (≈ 0.156 µM) |  | 0.03 (≈ 0.0782 µM) | 0.5 (≈ 1.3 µM) | ≤ 0.015 | 0.125 (≈ 0.326 µM)
3 | N[C@@H]1CC=C[C@@H]2CN(c3c(F)cc4c(=O)c(C(=O)O)cn(C5CC5)c4c3Cl)C[C@@H]12 (relative stereo) [Example 12, (1'SR,2'RS,6'SR)-7-(2'-Amino-8'-azabicyclo[4.3.0]non-4'-en-8'-yl)-8-chloro-1-cyclopropyl-6-fluoro-1,4-dihydro-4-oxo-3-quinolinecarboxylic acid] | 0.0039 (≈ 0.00933 µM) | 0.0078 (≈ 0.0187 µM) | 0.015 (≈ 0.0359 µM) | 0.015 (≈ 0.0359 µM) | 0.015 (≈ 0.0359 µM) | 0.015 (≈ 0.0359 µM) | 0.015 (≈ 0.0359 µM) | 0.25 (≈ 0.598 µM) | ≤ 0.0019 | 0.015 (≈ 0.0359 µM)
4 | Nc1c(F)c(N2C[C@H]3[C@H](N)CC=C[C@@H]3C2)c(F)c2c1c(=O)c(C(=O)O)cn2C1CC1 (relative stereo) [Example 19, (1 'SR,2 'RS,6 'SR)-5-Amino-7-(2 '-amino-8 '-azabicyclo[4.3.0]non-4'-en-8'-yl)-1-cyclopropyl-6,8-difluoro-1,4-dihydro-4-oxo-3-quinolinecarboxylic acid] | ≤ 0.015 | ≤ 0.015 | 0.03 (≈ 0.072 µM) | 0.03 (≈ 0.072 µM) | 0.06 (≈ 0.144 µM) | 0.03 (≈ 0.072 µM) | ≤ 0.015 | 1 (≈ 2.4 µM) | ≤ 0.015 | 0.03 (≈ 0.072 µM)
5 | CN[C@@H]1CC=C[C@@H]2CN(c3c(F)cc4c(=O)c(C(=O)O)cn(C5CC5)c4c3F)C[C@H]21 (relative stereo) [Example 22, (1'SR,2'RS,6'SR)-1-Cyclopropyl-6,8-difluoro-1,4-dihydro-7-(2'-methylamino-8'-azabicyclo[4.3-0]non-4'-en-8'-yl)-4-oxo-3-quinolinecarboxylic acid] | 0.03 (≈ 0.0722 µM) | 0.03 (≈ 0.0722 µM) | 0.125 (≈ 0.301 µM) | 0.06 (≈ 0.144 µM) | 0.125 (≈ 0.301 µM) | 0.125 (≈ 0.301 µM) | 0.125 (≈ 0.301 µM) | 2 (≈ 4.81 µM) | ≤ 0.015 | 0.125 (≈ 0.301 µM)
6 | Nc1cccc2c1CN(c1c(F)cc3c(=O)c(C(=O)O)cn(C4CC4)c3c1F)C2 [*, 7-(4-amino-1,3-dihydro-isoindol-2-yl)-1-cyclopropyl-6,8-difluoro-1,4-dihydro-4-oxo-3-quinolinecarboxylic acid, reference compound] | 0.5 (≈ 1.26 µM) | 0.5 (≈ 1.26 µM) |  | 4 (≈ 10.1 µM) |  | 1 (≈ 2.52 µM) | 1 (≈ 2.52 µM) | > 128 | 0.03 (≈ 0.0755 µM) | 
7 | CC1COc2c(N3C[C@H]4[C@H](N)CC=C[C@@H]4C3)c(F)cc3c(=O)c(C(=O)O)cn1c23 (stereo partly drawn) [Example 14, (1'SR,2'RS,6'SR)-10-(2'-Amino-8'-azabicyclo [4.3.0]non-4'-en-8'-yl)-9-fluoro-2,3-dihydro-3-methyl-7-oxo-7H-pyrido[1,2,3-de][1,4]benzoxazine-6-carboxylic acid] | 0.03 (≈ 0.0751 µM) | 0.03 (≈ 0.0751 µM) | 0.125 (≈ 0.313 µM) | 0.125 (≈ 0.313 µM) | 0.125 (≈ 0.313 µM) | 0.125 (≈ 0.313 µM) | 0.125 (≈ 0.313 µM) | 1 (≈ 2.5 µM) | 0.0078 (≈ 0.0195 µM) | 0.25 (≈ 0.626 µM)
